The supplement of paper PMC10307832

What was measured:
Crenolanib = compound: CC1(COc2ccc3c(c2)ncn3-c2ccc3cccc(N4CCC(N)CC4)c3n2)COC1 [Crenolanib]; assay: relative viability (nuclei count vs DMSO), 5 days (fraction); higher = more cells survive
Summary of the method: (§1)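 Cells of lung cancer lines were placed in 1536-well plates and kept overnight at 37 °C. Pinning then delivered five library-drug doses (not always all listed), spaced by √10, onto plates anchored with vehicle, and the cells were left 5 days without changing medium. One step fixed, permeabilised and stained them with Hoechst, and MetaXpress counted nuclei in 4× images. Viability, as a median over plates, is treated-well nuclei divided by vehicle-well nuclei, with acceptance only at control CV below 25% and at least one doubling.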

Tivantinib = compound: O=C1NC(=O)[C@@H](c2cn3c4c(cccc24)CCC3)[C@@H]1c1c[nH]c2ccccc12 [Tivantinib]; assay: as above
Summary of the method: as §1

Cell Line | relative viability (Crenolanib; 0.01 µM) | relative viability (Crenolanib; 0.03162 µM) | relative viability (Crenolanib; 0.1 µM) | relative viability (Crenolanib; 0.3162 µM) | relative viability (Crenolanib; 1 µM) | relative viability (Tivantinib; 0.01 µM) | relative viability (Tivantinib; 0.03162 µM) | relative viability (Tivantinib; 0.1 µM) | relative viability (Tivantinib; 0.3162 µM)
201T | 0.97 | 0.983 | 0.972 | 0.988 | 1.01 | 0.966 | 0.938 | 0.924 | 1.01
A549 | 1.05 | 0.977 | 0.959 | 1.12 | 0.949 | 0.993 | 0.979 | 0.793 | 0.992
A-427 | 0.953 | 0.969 | 0.976 | 0.948 | 0.927 | 0.959 | 0.978 | 0.976 | 1.02
ABC-1 | 1.08 | 0.876 | 0.855 | 0.985 | 0.795 | 0.887 | 0.98 | 0.821 | 0.805
BEN | 0.989 | 0.877 | 0.962 | 0.988 | 0.965 | 1 | 0.854 | 0.873 | 0.786
CAL-12T | 1.07 | 0.948 | 0.984 | 1.05 | 0.992 | 1.1 | 0.853 | 0.969 | 0.627
COR-L23 | 1.04 | 1.02 | 0.952 | 1.04 | 0.915 | 1.06 | 0.933 | 0.942 | 1.11
COR-L 105 | 1.03 | 0.953 | 0.852 | 0.963 | 0.915 | 0.912 | 0.734 | 0.892 | 0.537
Calu-6 | 1.1 | 0.992 | 0.978 | 1.08 | 0.959 | 0.989 | 1.03 | 0.977 | 0.989
ChaGo-K-1 | 0.933 | 0.977 | 0.941 | 0.931 | 0.937 | 0.982 | 1.01 | 0.968 | 0.909
EBC-1 | 1.06 | 0.961 | 0.989 | 1.03 | 1.03 | 1.05 | 0.859 | 0.933 | 0.994
EKVX | 1.06 | 0.871 | 0.916 | 1.05 | 1 | 0.953 | 0.957 | 0.936 | 0.371
EMC-BAC-2 | 1.08 |  | 0.994 | 1.13 | 0.84 | 1.01 | 0.962 | 0.997 | 0.998
EPLC-272H | 0.905 | 0.893 | 0.838 | 1.04 | 1.11 | 1.05 | 0.88 | 0.851 | 0.455
H3255 | 1.02 | 0.935 | 0.929 | 0.984 | 0.918 | 0.971 | 0.934 | 1 | 
HARA | 1.07 | 1 | 0.945 | 1 | 1.05 | 0.982 | 0.775 | 0.941 | 0.625
HCC-15 | 1.01 | 0.991 | 0.93 | 1.08 | 0.803 | 0.988 | 0.91 | 0.977 | 1.08
HCC-44 | 1.04 | 0.965 | 0.994 | 0.986 | 0.806 | 1.02 | 1.03 | 1.02 | 0.908
HCC-78 | 1.01 | 0.808 | 0.84 | 1.02 | 0.804 | 0.979 | 0.922 | 0.917 | 0.655

Cell Line | relative viability (Crenolanib; 0.01 µM) | relative viability (Crenolanib; 0.03162 µM) | relative viability (Crenolanib; 0.1 µM) | relative viability (Crenolanib; 0.3162 µM) | relative viability (Crenolanib; 1 µM) | relative viability (Tivantinib; 0.01 µM) | relative viability (Tivantinib; 0.03162 µM) | relative viability (Tivantinib; 0.1 µM) | relative viability (Tivantinib; 0.3162 µM)
HCC-366 | 1.03 | 1.03 | 0.958 | 1.05 | 0.998 | 1.02 | 1.03 | 0.994 | 0.955
HCC-827 | 1.08 | 1.02 | 1.03 | 1.04 | 0.958 | 1.06 | 1.07 | 1.04 | 0.765
HOP-62 | 0.986 | 1.02 | 0.977 | 1.1 | 0.933 | 0.975 | 0.787 | 0.972 | 1.02
IA-LM | 1.1 | 0.888 | 0.852 | 1.07 | 1.1 | 0.956 | 0.897 | 0.864 | 0.978
LC-2-ad | 1.01 | 0.982 | 0.94 | 0.976 | 0.866 | 0.977 | 0.933 | 0.934 | 1.01
LCLC-97TM1 | 1.12 | 0.903 | 0.93 | 1.05 | 0.921 | 1.02 | 0.813 | 0.961 | 0.871
LCLC-103H | 1.01 | 1.01 | 0.892 | 0.983 | 0.92 | 0.895 | 0.842 | 0.963 | 0.951
LK-2 | 0.981 | 1.04 | 0.979 | 1.14 | 0.898 | 1.04 |  | 0.892 | 0.89
LOU-NH91 | 1.02 | 0.939 | 0.929 | 0.891 | 0.906 | 0.932 | 0.946 | 1.02 | 0.747
LU99A | 1.1 | 0.974 | 1.04 | 1 | 1.02 | 1.06 | 0.76 | 0.909 | 1.01
LXF-289 | 0.964 | 0.996 | 0.97 | 1.01 | 0.976 | 1.03 | 1.03 | 0.977 | 1.01
NCI-H23 | 1.03 | 0.929 | 0.911 | 1 | 0.766 | 0.975 | 0.762 | 0.982 | 1
NCI-H322M | 0.936 | 0.911 | 0.953 | 0.811 | 0.912 | 0.958 | 0.865 | 0.928 | 
NCI-H358 | 1.03 | 1.04 | 0.856 | 0.924 | 0.672 | 0.94 | 0.909 | 0.865 | 0.355
NCI-H441 | 1.08 | 1.11 | 0.987 | 1.13 | 0.928 | 0.902 | 1.22 | 0.9 | 0.939
NCI-H460 | 1 | 0.998 | 0.975 | 0.995 | 0.956 | 0.986 | 0.971 | 0.98 | 0.999
NCI-H520 | 0.93 | 0.999 | 1.05 | 0.908 | 1.05 | 1.14 | 0.968 | 0.867 | 0.964
NCI-H522 | 0.938 | 0.881 | 1.03 | 0.869 | 0.95 | 0.943 | 0.71 | 0.839 | 0.741
NCI-H596 | 0.912 | 1.04 | 0.948 | 0.946 | 0.972 | 1.08 | 0.826 | 0.92 | 1.01
